Experimental data as given in US20240025919A1, “AZA-TETRACYCLIC OXAZEPINE COMPOUNDS AND USES THEREOF” (Genentech, Inc., priority 2022, published 2024).
pIC50: −log10 of the molar value. Where two headings read alike, the source gives them in different places.

Assays:
KRAS WT = KRAS WT (Homo sapiens (Human), UniProt P01116); assay: KRAS WT Biochemical Assay, BODIPY-GDP Exchange TR-FRET (Example 501; 3 nM KRAS WT, 3 nM SOS1, 60-minute incubation); settings: for pIC50: read-out: KRas HTRF IC50
Procedure, shortened: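 SOS1-mediated exchange assay: 3 nM biotin-KRAS WT with terbium-streptavidin, started with 3 nM SOS1 and 300 nM BODIPY-GDP, HEPES pH 7.5 with MgCl2. TR-FRET (520/490 nm) read after 60 min; normalized to DMSO and full-inhibition control, IC50 from 4-parameter Hill fit.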

KRAS G12D = KRAS G12D (Homo sapiens (Human), UniProt P01116, G12D); assay: KRAS G12D LoEnz Biochemical Assay, BODIPY-GDP Exchange TR-FRET (SOS1-mediated nucleotide exchange); settings: read-out: KRas (G12D) GDP HTRF IC50
KRAS G12D, sequence (P01116-2 other isoform, or with tags, fused parts or gaps G12D): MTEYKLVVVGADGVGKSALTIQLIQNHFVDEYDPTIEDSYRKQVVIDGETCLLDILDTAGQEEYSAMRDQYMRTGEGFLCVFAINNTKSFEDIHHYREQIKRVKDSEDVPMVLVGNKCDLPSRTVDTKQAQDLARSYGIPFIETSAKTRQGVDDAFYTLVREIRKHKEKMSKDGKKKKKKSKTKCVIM

KRAS WT, sequence (P01116-2 other isoform, or with tags, fused parts or gaps): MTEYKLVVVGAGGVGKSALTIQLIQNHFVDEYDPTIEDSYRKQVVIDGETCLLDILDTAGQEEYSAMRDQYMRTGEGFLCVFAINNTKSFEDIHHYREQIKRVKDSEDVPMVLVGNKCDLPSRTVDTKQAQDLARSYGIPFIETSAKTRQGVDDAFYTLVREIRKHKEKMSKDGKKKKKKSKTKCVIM

Row | Structure (SMILES) | pIC50 (KRAS WT) | pIC50 (KRAS G12D) | IC50 (KRAS WT; KRas HTRF IC50 [uM])
1 | Cc1nc(N)cc(-c2nc3c4c(nc(OC[C@@]56CCCN5C[C@H](F)C6)nc4c2F)N2C[C@H]4CC[C@H](N4)[C@H]2[C@H](C(F)(F)F)O3)c1C(F)(F)F [Compound 242, 4-((5R,5aS,6S,9R)-1-Fluoro-12-(((2R,7aS)-2-fluorotetrahydro-1H-pyrrolizin-7a(5H)-yl)methoxy)-5-(trifluoromethyl)-5a,6,7,8,9,10-hexahydro-5H-4-oxa-3,10a,11,13,14-pentaaza-6,9-methanonaphtho[1,8-ab]heptalen-2-yl)-6-methyl-5-(trifluoromethyl)pyridin-2-amine] | 8.28 | 9.48 | –
2 | Cc1c(F)c(N)cc(-c2nc3c4c(nc(OC[C@@H]5CC[C@H]6COCCN65)nc4c2F)N2C[C@H]4CC[C@H](N4)[C@H]2[C@H](C(F)(F)F)O3)c1C(F)(F)F [Compound 245, 2-Fluoro-5-((5R,5aS,6S,9R)-1-fluoro-12-(((6S,8aS)-hexahydro-1H-pyrrolo[2,1-c][1,4]oxazin-6-yl)methoxy)-5-(trifluoromethyl)-5a,6,7,8,9,10-hexahydro-5H-4-oxa-3,10a,11,13,14-pentaaza-6,9-methanonaphtho[1,8-ab]heptalene-2-yl)-3-methyl-4-(trifluoromethyl)aniline] | 8.13 | 9.60 | –
3 | Cc1c(F)c(N)cc(-c2nc3c4c(nc(OC[C@@]56CCCN5C[C@H](F)C6)nc4c2F)N2C[C@H]4CC[C@H](N4)[C@H]2[C@H](C(F)(F)F)O3)c1C(F)(F)F [Compound 247, 2-Fluoro-5-((5R,5aS,6S,9R)-1-fluoro-12-(((2R,7aS)-2-fluorotetrahydro-1H-pyrrolizin-7a(5H)-yl)methoxy)-5-(trifluoromethyl)-5a,6,7,8,9,10-hexahydro-5H-4-oxa-3,10a,11,13,14-pentaaza-6,9-methanonaphtho[1,8-ab]heptalene-2-yl)-3-methyl-4-(trifluoromethyl)aniline] | 9.02 | 9.68 | –
4 | Cc1c(F)c(N)cc(-c2nc3c4c(nc(OC[C@@]56CCCN5C[C@H](F)C6)nc4c2F)N2C[C@H]4CC[C@H](N4)[C@@H]2[C@@H](C(F)(F)F)O3)c1C(F)(F)F [Compound 248, 2-Fluoro-5-((5S,5aR,6S,9R)-1-fluoro-12-(((2R,7aS)-2-fluorotetrahydro-1H-pyrrolizin-7a(5H)-yl)methoxy)-5-(trifluoromethyl)-5a,6,7,8,9,10-hexahydro-5H-4-oxa-3,10a,11,13,14-pentaaza-6,9-methanonaphtho[1,8-ab]heptalene-2-yl)-3-methyl-4-(trifluoromethyl)aniline] | 9.28 | 8.96 | –
5 | Cc1c(F)c(N)cc(-c2nc3c4c(nc(OCC5(CN6CCOCC6)CC5)nc4c2F)N2C[C@H]4CC[C@H](N4)[C@H]2[C@H](C(F)(F)F)O3)c1C(F)(F)F [Compound 249, 2-Fluoro-5-((5R,5aS,6S,9R)-1-fluoro-12-((1-(morpholinomethyl)cyclopropyl)methoxy)-5-(trifluoromethyl)-5a,6,7,8,9,10-hexahydro-5H-4-oxa-3,10a,11,13,14-pentaaza-6,9-methanonaphtho[1,8-ab]heptalene-2-yl)-3-methyl-4-(trifluoromethyl)aniline] | 8.86 | 9.66 | –
6 | Cc1c(F)c(N)cc(-c2nc3c4c(nc(OC[C@@]56CCCN5C[C@H](F)C6)nc4c2F)N2C[C@H]4CC[C@H](N4)[C@H]2[C@H](C(F)(F)F)O3)c1CC(F)F [Compound 250, 4-(2,2-Difluoroethyl)-2-fluoro-5-((5R,5aS,6S,9R)-1-fluoro-12-(((2R,7aS)-2-fluorotetrahydro-1H-pyrrolizin-7a(5H)-yl)methoxy)-5-(trifluoromethyl)-5a,6,7,8,9,10-hexahydro-5H-4-oxa-3,10a,11,13,14-pentaaza-6,9-methanonaphtho[1,8-ab]heptalene-2-yl)-3-methylaniline] | 7.87 | 9.41 | –
7 | C#Cc1cccc2cc(O)cc(-c3nc4c5c(nc(OC[C@@]67CCCN6C[C@H](F)C7)nc5c3F)N3C[C@H]5CC[C@H](N5)[C@H]3[C@H](C(F)(F)F)O4)c12 [Compound 251, 5-Ethynyl-4-((5R,5aS,6S,9R)-1-fluoro-12-(((2R,7aS)-2-fluorotetrahydro-1H-pyrrolizin-7a(5H)-yl)methoxy)-5-(trifluoromethyl)-5a,6,7,8,9,10-hexahydro-5H-4-oxa-3,10a,11,13,14-pentaaza-6,9-methanonaphtho[1,8-ab]heptalene-2-yl)naphthalen-2-ol] | 8.98 | 9.80 | –
8 | Cc1nc(N)cc(-c2nc3c4c(nc(OC[C@@H]5CC[C@H]6COCCN65)nc4c2F)N2C[C@H]4CC[C@H](N4)[C@H]2[C@H](C(F)(F)F)O3)c1C(F)(F)F [Compound 253, 4-((5R,5aS,6S,9R)-1-Fluoro-12-(((6S,8aS)-hexahydro-1H-pyrrolo[2,1-c][1,4]oxazin-6-yl)methoxy)-5-(trifluoromethyl)-5a,6,7,8,9,10-hexahydro-5H-4-oxa-3,10a,11,13,14-pentaaza-6,9-methanonaphtho[1,8-ab]heptalene-2-yl)-6-methyl-5-(trifluoromethyl)pyridin-2-amine] | 7.43 | 8.99 | –
9 | Cc1nc(N)cc(-c2nc3c4c(nc(OC[C@@]56CCCN5CC5(CC5(F)F)C6)nc4c2F)N2C[C@H]4CC[C@H](N4)[C@H]2[C@H](C(F)(F)F)O3)c1C(F)(F)F (stereo partly drawn) [Compound 254, 4-((5R,5aS,6S,9R)-12-(((7a′S)-2,2-Difluorodihydro-1′H,3′H-spiro[cyclopropane-1,2′-pyrrolizin]-7a′(5′H)-yl)methoxy)-1-fluoro-5-(trifluoromethyl)-5a,6,7,8,9,10-hexahydro-5H-4-oxa-3,10a,11,13,14-pentaaza[6,9]methanonaphtho[1,8-ab]heptalene-2-yl)-6-methyl-5-(trifluoromethyl)pyridin-2-amine] | 8.90 | 9.31 | –
10 | Cc1nc(N)c(F)c(-c2nc3c4c(nc(OC[C@@]56CCCN5C[C@H](F)C6)nc4c2F)N2C[C@H]4CC[C@H](N4)[C@H]2[C@H](C(F)(F)F)O3)c1C(F)(F)F [Compound 256, 3-Fluoro-4-((5R,5aS,6S,9R)-1-fluoro-12-(((2R,7aS)-2-fluorotetrahydro-1H-pyrrolizin-7a(5H)-yl)methoxy)-5-(trifluoromethyl)-5a,6,7,8,9,10-hexahydro-5H-4-oxa-3,10a,11,13,14-pentaaza-6,9-methanonaphtho[1,8-ab]heptalen-2-yl)-6-methyl-5-(trifluoromethyl)pyridin-2-amine] | 7.77 | 9.09 | –
11 | Cc1nc(N)c(F)c(-c2nc3c4c(nc(OC[C@@]56CCCN5CC5(CC5(F)F)C6)nc4c2F)N2C[C@H]4CC[C@H](N4)[C@H]2[C@H](C(F)(F)F)O3)c1C(F)(F)F (stereo partly drawn) [Compound 257, 4-((5R,5aS,6S,9R)-12-(((7a'S)-2,2-Difluorodihydro-1′H,3′H-spiro[cyclopropane-1,2′-pyrrolizin]-7a′(5′H)-yl)methoxy)-1-fluoro-5-(trifluoromethyl)-5a,6,7,8,9,10-hexahydro-5H-4-oxa-3,10a,11,13,14-pentaaza[6,9]methanonaphtho[1,8-ab]heptalen-2-yl)-3-fluoro-6-methyl-5-(trifluoromethyl)pyridin-2-amine] | 8.08 | 9.05 | –
12 | Cc1c(F)c(N)cc(-c2nc3c4c(nc(OCC5(CN6CC6(C)C)CC5)nc4c2F)N2C[C@H]4CC[C@H](N4)[C@H]2[C@H](C)O3)c1C(F)(F)F (stereo partly drawn) [Compound 259, 5-((5S,5aS,6S,9R)-12-((1-((2,2-Dimethylaziridin-1-yl)methyl)cyclopropyl)methoxy)-1-fluoro-5-methyl-5a,6,7,8,9,10-hexahydro-5H-4-oxa-3,10a,11,13,14-pentaaza-6,9-methanonaphtho[1,8-ab]heptalen-2-yl)-2-fluoro-3-methyl-4-(trifluoromethyl)aniline] | – | 9.80 | 0.00971 µM
13 | C[C@@H]1Oc2nc(-c3cc(N)nc(C(F)F)c3C(F)(F)F)c(F)c3nc(OC[C@@]45CCCN4C[C@H](F)C5)nc(c23)N2C[C@H]3CC[C@H](N3)[C@@H]12 [Compound 260, 6-(Difluoromethyl)-4-((5S,5aS,6S,9R)-1-fluoro-12-(((2R,7aS)-2-fluorotetrahydro-1H-pyrrolizin-7a(5H)-yl)methoxy)-5-methyl-5a,6,7,8,9,10-hexahydro-5H-4-oxa-3,10a,11,13,14-pentaaza-6,9-methanonaphtho[1,8-ab]heptalen-2-yl)-5-(trifluoromethyl)pyridin-2-amine] | 7.58 | 9.55 | –
14 | Cc1nc(N)cc(-c2nc3c4c(nc(OCC56C[C@@H](F)CN5C[C@H](F)C6)nc4c2F)N2C[C@H]4CC[C@H](N4)[C@H]2[C@H](C(F)(F)F)O3)c1C(F)(F)F [Compound 261, 4-((5R,5aS,6S,9R)-12-(((2R,6R)-2,6-Difluorotetrahydro-1H-pyrrolizin-7a(5H)-yl)methoxy)-1-fluoro-5-(trifluoromethyl)-5a,6,7,8,9,10-hexahydro-5H-4-oxa-3,10a,11,13,14-pentaaza-6,9-methanonaphtho[1,8-ab]heptalen-2-yl)-6-methyl-5-(trifluoromethyl)pyridin-2-amine] | 7.01 | 8.56 | –
15 | Cc1nc(N)cc(-c2nc3c4c(nc(OCC5(CN6CC7CC(C6)O7)CC5)nc4c2F)N2C[C@H]4CC[C@H](N4)[C@H]2[C@H](C)O3)c1C(F)(F)F [Compound 265, 4-((5S,5aS,6S,9R)-12-((1-((6-oxa-3-azabicyclo[3.1.1]heptan-3-yl)methyl)cyclopropyl)methoxy)-1-fluoro-5-methyl-5a,6,7,8,9,10-hexahydro-5H-4-oxa-3,10a,11,13,14-pentaaza-6,9-methanonaphtho[1,8-ab]heptalene-2-yl)-6-methyl-5-(trifluoromethyl)pyridin-2-amine] | 7.85 | 9.55 | –
